From patent US6924297B2, “Naphathalene derivatives which bind to the EP4 receptor” (SmithKline Beecham Corporation, priority 2000, dated 2005) come the findings set out here.

The target in the test is T1, human EP4 receptor (Homo sapiens, UniProt P35408).
T1 construct: expressed in transfected cells; host or cells: Chinese Hamster Ovary (CHO) cells infected with recombinant Semliki Forest Virus (SFV-1) particles; membranes prepared from these cells
The test is described as follows: Human EP4 Scintillation Proximity Assay (radioligand binding). Particulars: membranes of CHO cells expressing human EP4 receptor; [3H]-prostaglandin E2 radioligand; pKi from IC50 by Cheng-Prusoff; read-out: pKI at EP4 receptors (converted). As for the experimental part: Quantification of radioligand binding by scintillation proximity assay (SPA) is a long-established principle. Briefly, the affinity of compounds for a receptor is assessed by the specific competition between known quantities of radiolabelled ligand and compound for that receptor. Increasing concentrations of compound reduce the amount of radiolabel that binds to the receptor. This gives rise to a diminishing scintillation signal from SPA beads coated with membranes that bear the receptor. The signal may be detected with a suitable scintillation counter and the data generated may be analysed with suitable curve-fitting software.
The human EP4 SPA assay (hereafter referred to as ‘the assay’) utilises membranes prepared from Chinese Hamster Ovary (CHO cells) infected with Semliki Forest Virus (SFV). Genetically engineered SFV-1 viral particles containing the genetic sequence of the human EP4 receptor were used to infect CHO cells resulting in expression of the receptor protein in cellular membranes. Cells washed free of media are homogenised in a pH-buffered medium containing peptidase inhibitors. A suitable buffer is of the following composition: 50 mM HEPES, 1 mM EDTA, 25 μg/ml bacitracin, 100 μM leupeptin, 1 mM PMSF, 2 μM Pepstatin A, pH adjusted to 7.4 with KOH. Following removal of cell debris by a low-speed centrifugation, a pellet of membranes is prepared by a high-speed (48000 g) centrifugation of the resulting supernatant. Membrane suspensions such as that described may be stored at −80° C. until used.
For assay, membranes expressing human EP4 receptors are diluted in a pH-buffered medium and mixed with SPA beads coated with a suitable substance to facilitate the adhesion of membranes to the beads. The concentrations of membrane protein and SPA beads chosen should result in SPA binding signal of at least 300 corrected counts per minute (CCPM) when tritiated radioligand at a concentration close to its Kd (affinity value) is combined with the mixture. Non-specific binding (nsb) may be determined by competition between the radiolabelled ligand and a saturating concentration of unlabelled ligand. In order to quantify the affinity of EP4 receptor ligands, compounds are diluted in a stepwise manner across the wells of a 96-well plate. Radioligand, compound, and unlabelled ligand are then added to a 96-well plate suitable for the measurement of SPA binding signals prior to the addition of bead/membrane mixture to initiate the binding reaction. Equilibrium may be achieved by incubation at room temperature for 120 minutes prior to scintillation counting. The data so generated may be analysed by means of a computerised curve-fitting routine in order to quantify the concentration of compound that displaces 50% of the specific radioligand binding (IC50). The affinity (pKi) of the compound may be calculated from the IC50 by application of the Cheng-Prusoff correction. Suitable reagents and protocols are: reaction buffer containing 50 mM HEPES, 10 mM MgCl2, pH adjusted to 7.4 with KOH; SPA beads coated with wheatgerm agglutinin; 1.25 nM [^3H]-prostaglandin E2 as radioligand; 10 μM prostaglandin E2 as unlabelled ligand; a three-fold dilution series of compound starting at 10 μM and ending at 0.3 nM is adequate.
A general note: In a scintillation proximity assay essentially only radioactivity close to the scintillant gives light.

Some results are limits rather than exact numbers.

T1 sequence (P35408 whole entry): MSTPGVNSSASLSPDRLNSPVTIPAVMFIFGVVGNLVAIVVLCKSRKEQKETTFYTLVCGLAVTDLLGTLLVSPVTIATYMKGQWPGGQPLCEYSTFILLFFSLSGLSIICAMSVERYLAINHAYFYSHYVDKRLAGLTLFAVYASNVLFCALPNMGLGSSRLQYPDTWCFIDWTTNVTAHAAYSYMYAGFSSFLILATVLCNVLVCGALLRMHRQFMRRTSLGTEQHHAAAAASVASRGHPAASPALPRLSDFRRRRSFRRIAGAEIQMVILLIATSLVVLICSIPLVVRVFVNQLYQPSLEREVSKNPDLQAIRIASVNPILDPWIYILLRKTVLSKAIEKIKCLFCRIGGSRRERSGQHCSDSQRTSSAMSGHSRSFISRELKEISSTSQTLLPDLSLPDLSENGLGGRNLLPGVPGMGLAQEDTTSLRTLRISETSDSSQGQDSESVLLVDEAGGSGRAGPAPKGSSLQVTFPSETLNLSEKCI

For `CCOc1c2c(c(OCC)c3ccccc13)C(=O)N(c1ccc(CS(=O)(=O)NC(=O)Cc3scnc3C)cc1)C2` [Example 60], the Ki was not above 100 nM. Consider `CCOc1c2c(c(OCC)c3ccccc13)C(=O)N(c1ccc(CS(=O)(=O)NC(=O)C(C)c3ccccc3)cc1)C2=O` (centres unmarked) [Example 68], for which the Ki is not above 100 nM. For the compound `CCOc1c2c(c(OCC)c3ccccc13)C(=O)N(c1ccc(CS(=O)(=O)NC(=O)Cc3cccc(OC)c3OC)cc1)C2` [Example 34, 1-[4-(4,9-diethoxy-1-oxo-1,3-dihydro-2H-benzo[f]isoindol-2-yl)phenyl]-N-[(2,3-dimethoxyphenyl)acetyl]methanesulfonamide], the Ki is not above 100 nM.

Take `CCOc1c2c(c(OCC)c3ccccc13)C(=O)N(c1ccc(CS(=O)(=O)NC(=O)Cc3ccsc3)cc1)C2` [Example 51]: the Ki is not above 100 nM. The figure for `CCOc1c2c(c(OCC)c3ccccc13)C(=O)N(c1ccc(CS(=O)(=O)NC(=O)Cc3ccc(C)c(F)c3)cc1)C2=O` [Example 74] is not above 100 nM; for `CCOc1c2c(c(OCC)c3ccccc13)C(=O)N(c1ccc(CS(=O)(=O)NC(=O)Cc3c(C)cccc3C)cc1)C2=O` [Example 72] it is not above 100 nM; for `CCOc1c2c(c(OCC)c3ccccc13)C(=O)N(c1ccc(CS(=O)(=O)NC(=O)Cc3ccc(CC)cc3)cc1)C2` [Example 28] it is not above 100 nM.

Consider `CCOc1c2c(c(OCC)c3ccccc13)C(=O)N(c1ccc(CS(=O)(=O)NC(=O)Cc3ccccc3C)cc1)C2` [Example 21], for which the Ki was not above 100 nM. `CCOc1c2c(c(OCC)c3ccccc13)C(=O)N(c1ccc(CS(=O)(=O)NC(=O)Cc3cccc4occc34)cc1)C2` [Example 88]: the Ki was not above 100 nM. On to `CCOc1c2c(c(OCC)c3ccccc13)C(=O)N(c1ccc(CS(=O)(=O)NC(=O)Cc3ccc4ccccc4c3)cc1)C2=O` [Example 77], for which the Ki is not above 100 nM. In the case of `CCOc1c2c(c(OCC)c3ccccc13)C(=O)N(c1ccc(CS(=O)(=O)NC(=O)Cc3ccc4c(c3)OC(C)(C)O4)cc1)C2` [Example 85], the Ki is not above 100 nM. On to `CCOc1c2c(c(OCC)c3ccccc13)C(=O)N(c1ccc(CS(=O)(=O)NC(=O)Cc3ccc4c(c3)OCO4)cc1)C2` [Example 84], for which the Ki is not above 100 nM. For the compound `CCOc1c2c(c(OCC)c3ccccc13)C(=O)N(c1ccc(CS(=O)(=O)NC(=O)Cc3ccc(OC)cc3)cc1)C2=O` [Example 2], the Ki was not above 100 nM. In the case of `CCOc1c2c(c(OCC)c3ccccc13)C(=O)N(c1ccc(CS(=O)(=O)NC(=O)Cc3ccccc3CC(=O)OC)cc1)C2` [Example 47], the Ki is not above 100 nM. With `CCOc1c2c(c(OCC)c3ccccc13)C(=O)N(c1ccc(CS(=O)(=O)NC(=O)C(C)(C)c3cccc(C)c3)cc1)C2=O` [Example 73], the Ki was not above 100 nM. For `CCOc1c2c(c(OCC)c3ccccc13)C(=O)N(c1ccc(CS(=O)(=O)NC(=O)C(C)(C)c3ccccc3)cc1)C2` [Example 22] the value was not above 100 nM; for `CCOc1c2c(c(OCC)c3ccccc13)C(=O)N(c1ccc(CS(=O)(=O)NC(=O)Cc3ccc(C)cc3)cc1)C2=O` [Example 67, 1-[4-(4,9-diethoxy-1,3-dioxo-1,3-dihydro-2H-benzo[f]isoindol-2-yl)phenyl]-N-[(4-methylphenyl)acetyl]methanesulfonamide], not above 100 nM; for `CCOc1c2c(c(OCC)c3ccccc13)C(=O)N(c1ccc(CS(=O)(=O)NC(=O)Cc3cc(OC)cc(OC)c3)cc1)C2` [Example 83], not above 100 nM.

Regarding `CCOc1c2c(c(OCC)c3ccccc13)C(=O)N(c1ccc(CS(=O)(=O)NC(=O)Cc3ccc(OC)c(OC)c3)cc1)C2=O` [Example 66, 1-[4-(4,9-diethoxy-1,3-dioxo-1,3-dihydro-2H-benzo[f]isoindol-2-yl)phenyl]-N-[(3,4-dimethoxyphenyl)acetyl]methanesulfonamide], the Ki is not above 100 nM. For the compound `CCOc1c2c(c(OCC)c3ccccc13)C(=O)N(c1ccc(CS(=O)(=O)NC(=O)Cc3ccc4ccccc4c3)cc1)C2` [Example 48], the Ki is not above 100 nM.

Regarding `CCOc1c2c(c(OCC)c3ccccc13)C(=O)N(c1ccc(CS(=O)(=O)NC(=O)Cn3ccc4ccccc43)cc1)C2` [Example 87], the Ki was not above 100 nM. Turning to `CCOc1c2c(c(OCC)c3ccccc13)C(=O)N(c1ccc(CS(=O)(=O)NC(=O)Cc3cccc(OC)c3)cc1)C2=O` [Example 63], the Ki was not above 100 nM.

Consider `CCOc1c2c(c(OCC)c3ccccc13)C(=O)N(c1ccc(CS(=O)(=O)NC(=O)Cc3ccccc3)cc1)C2=O` [Example 1, 1-[4-(4,9-diethoxy-1,3-dioxo-1,3-dihydro-2H-benzo[f]isoindol-2-yl)phenyl]-N-(phenylacetyl)methanesulfonamide], for which the Ki was not above 100 nM. Consider `CCOc1c2c(c(OCC)c3ccccc13)C(=O)N(c1ccc(CS(=O)(=O)NC(=O)Cc3ccccc3OC)cc1)C2` [Example 31, 1-[4-(4,9-diethoxy-1-oxo-1,3-dihydro-2H-benzo[f]isoindol-2-yl)phenyl]-N-[(2-methoxyphenyl)acetyl]methanesulfonamide], for which the Ki is not above 100 nM.

Take `CCOc1c2c(c(OCC)c3ccccc13)C(=O)N(c1ccc(CS(=O)(=O)NC(=O)Cc3cccc4ccccc34)cc1)C2=O` [Example 76]: the Ki was not above 100 nM.

`CCOc1c2c(c(OCC)c3ccccc13)C(=O)N(c1ccc(CS(=O)(=O)NC(=O)Cc3ccc(CC(C)C)cc3)cc1)C2` [Example 23]: the Ki is not above 100 nM. Regarding `CCOc1c2c(c(OCC)c3ccccc13)C(=O)N(c1ccc(CS(=O)(=O)NC(=O)Cc3ccccc3C)cc1)C2=O` [Example 61], the Ki was not above 100 nM. For `CCOc1c2c(c(OCC)c3ccccc13)C(=O)N(c1ccc(CS(=O)(=O)NC(=O)Cc3ccc(-c4ccccc4)cc3)cc1)C2` [Example 30], the Ki is not above 100 nM.

With `CCOc1c2c(c(OCC)c3ccccc13)C(=O)N(c1ccc(CS(=O)(=O)NC(=O)Cc3ccc(F)cc3)cc1)C2=O` [Example 62], the Ki is not above 100 nM.

As for `CCOc1c2c(c(OCC)c3ccccc13)C(=O)N(c1ccc(CS(=O)(=O)NC(=O)Cc3cc(C)ccc3C)cc1)C2` [Example 39], the Ki is not above 100 nM.

For the compound `CCOc1c2c(c(OCC)c3ccccc13)C(=O)N(c1ccc(CS(=O)(=O)NC(=O)Cc3cc(OC)ccc3OC)cc1)C2` [Example 36], the Ki is not above 100 nM. On to `CCOc1c2c(c(OCC)c3ccccc13)C(=O)N(c1ccc(CS(=O)(=O)NC(=O)Cc3cccc(F)c3)cc1)C2=O` [Example 65], for which the Ki is not above 100 nM. For the compound `CCOc1c2c(c(OCC)c3ccccc13)C(=O)N(c1ccc(CS(=O)(=O)NC(=O)Cc3ccccc3)cc1)C2` [Example 18, 1-[4-(4,9-diethoxy-1-oxo-1,3-dihydro-2H-benzo[f]isoindol-2-yl)phenyl]-N-(phenylacetyl)methanesulfonamide], the Ki is not above 100 nM. Regarding `CCOc1c2c(c(OCC)c3ccccc13)C(=O)N(c1ccc(CS(=O)(=O)NC(=O)C3(c4ccccc4)CC3)cc1)C2` [Example 50], the Ki was not above 100 nM. As to `CCOc1c2c(c(OCC)c3ccccc13)C(=O)N(c1ccc(CS(=O)(=O)NC(=O)Cc3cc(F)ccc3F)cc1)C2=O` [Example 69], the Ki was not above 100 nM. As for `CCOc1c2c(c(OCC)c3ccccc13)C(=O)N(c1ccc(CS(=O)(=O)NC(=O)C(CC)c3ccccc3)cc1)C2=O` (centres unmarked) [Example 64], the Ki was not above 100 nM. In the case of `CCOc1c2c(c(OCC)c3ccccc13)C(=O)N(c1ccc(CS(=O)(=O)NC(=O)Cc3cccc(F)c3)cc1)C2` [Example 25], the Ki was not above 100 nM. In the case of `CCOc1c2c(c(OCC)c3ccccc13)C(=O)N(c1ccc(CS(=O)(=O)NC(=O)Cc3cccc(OC(F)(F)F)c3)cc1)C2` [Example 81], the Ki is not above 100 nM. `CCOc1c2c(c(OCC)c3ccccc13)C(=O)N(c1ccc(CS(=O)(=O)NC(=O)C(C)c3ccc(CC(C)C)cc3)cc1)C2` (centres unmarked) [Example 40]: the Ki is not above 100 nM. The figure for `CCOc1c2c(c(OCC)c3ccccc13)C(=O)N(c1ccc(CS(=O)(=O)NC(=O)Cc3ccc4c(c3)OCO4)cc1)C2=O` [Example 93] is not above 100 nM; for `CCOc1c2c(c(OCC)c3ccccc13)C(=O)N(c1ccc(CS(=O)(=O)NC(=O)Cc3ccc(C)cc3)cc1)C2` [Example 20] it is not above 100 nM.
